Data from BindingDB's records for patent US11708351 (Achillion Pharmaceuticals, 2023).
pIC50: −log10 of the molar value.

Target: Complement factor D (Homo sapiens, UniProt P00746)
Assay: Human Factor D Assay
Protocol: Human Factor D (purified from human serum, Complement Technology, Inc.) at 80 nM final concentration is incubated with test compound at various concentrations for 5 min at room temperature in 50 mM Tris, 1M NaCl, pH 7.5. A synthetic substrate Z-L-Lys-SBzl and DTNB (Ellman's reagent) are added to final concentrations of 100 μM each. Absorbance at 405 nm (A405) is recorded at 30 second intervals for 30 min using a microplate spectrophotometer. IC50 values are calculated by nonlinear regression of complement Factor D reaction rates as a function of test compound concentration.

Chain of Complement factor D (P00746 whole entry): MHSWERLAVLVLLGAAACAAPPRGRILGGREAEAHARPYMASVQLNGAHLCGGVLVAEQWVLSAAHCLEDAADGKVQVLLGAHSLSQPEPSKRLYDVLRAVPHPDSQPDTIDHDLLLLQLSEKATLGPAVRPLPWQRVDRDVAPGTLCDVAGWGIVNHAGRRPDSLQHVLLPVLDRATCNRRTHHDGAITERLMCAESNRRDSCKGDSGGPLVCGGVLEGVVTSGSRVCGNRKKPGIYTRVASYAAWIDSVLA

CC(=O)c1nn(CC(=O)N2[C@@H](C(=O)Nc3nc(Br)ccc3C)C[C@@]3(C)C[C@@H]23)c2ccc(-c3cnc(C)nc3)cc12 [US11708351, Compound 279]
pIC50: < 5.00
